Test results: patent publication US9227977B2, “Phosphoinositide 3-kinase inhibitors” (RESPIVERT LTD., priority 2013, dated 2016)

Columns and labels:
PI3K γ = PI3K γ (Homo sapiens (Human), UniProt P48736); test: PI3K γ cell based assay: MCP-1-induced Akt phosphorylation in d-U937 cells; conditions: inhibition of induced Akt phosphorylation, MCP-1 stimulus; read-out: REC50 values in d-U937 cells, MCP-1 stimulus
Experimental: As a means of assessing the activation of PI3K γ in response to stimuli, the phosphorylation status of the protein, Akt, a downstream product of PI3K γ signalling, was determined following stimulation with MCP-1.
U937 cells were differentiated to macrophage-type cells by incubation with PMA (100 ng/mL) for 48 to 72 hr. Cells were then pre-incubated with either the test compound or vehicle for 2 hr and were then stimulated briefly with MCP-1 (10 nM, 1 min) and the reaction stopped by replacing the media with 4% formaldehyde solution. […] After washing with buffer (PBS containing 0.1% Triton X-100), cells were incubated with an HRP-conjugated secondary antibody (Dako) and the resultant signal was determined colorimetrically (OD: 450 nm with a reference wavelength of 655 nm) using TMB substrate (substrate reagent pack supplied by R&D Systems, Inc.).
This reaction was stopped by addition of 1N H2SO4 solution (100 μL). […] After washing with buffer (PBS containing 0.1% Triton X-100) 1% SDS (100 μL) was added to each well and the plates were shaken lightly for 1 hr prior to measuring the absorbance at 595 nm (Varioskan® Flash, Thermo-Fisher Scientific). The measured OD450-655 readings were corrected for cell number by dividing the OD450-655 by the OD595 readings. The ratio of pAkt signal to total Akt signal was used to quantitate the extent of PI3K γ activation. […]

[1] = tested on: LPS-induced airway neutrophilia in rats; test: LPS-induced airway neutrophil accumulation in rats; type: in vivo, rat; conditions: i-t; for Neutrophil numbers in BALF: mean ± SEM
Experimental: Non-fasted rats were dosed with either vehicle or the test compound by intra-tracheal administration (dose volume 100 μL) at time points T=−2 h, −8 h, or −12 h with respect to the start of LPS treatment. The LPS solution (0.3 mg/mL) was aerosolised using a De Vibliss ultrasonic nebuliser 2000 (7 mL during 30 min). At eight hr after LPS challenge, the trachea was cannulated and bronchoalveolar lavage fluid (BALF) extracted by infusing and then withdrawing PBS (1 mL) into the lungs via the tracheal catheter. This procedure was repeated to provide approximately 2 mL of lavage fluid.
Total cell numbers in the BALF samples were measured using a Countess automated cell counter (Invitrogen). Cytospin smears of the BALF samples were prepared by centrifugation at 1200 rpm for 2 min at RT and stained using a DiffQuik stain system (Dade Behring) for differential cell counts. Cells were counted using oil immersion microscopy. Data are expressed as neutrophil number of cells per mL of BALF (mean±S.E.M).

[2] = tested on: ovalbumin-induced airway eosinophilia and neutrophilia in mice; test: Ovalbumin-induced airway eosinophil and neutrophil accumulation in mice; type: in vivo, mouse; conditions: OVA-sensitized mice, i-t; for Cell numbers in BALF, Eosinophils / Cell numbers in BALF, Neutrophils: mean ± SEM
Experimental: BALB/c mice (6-8 weeks old) were immunized with OVA (10 μg/mouse i.p.) on days 0 and 7. In order to elicit a local inflammatory response in the lung, mice were repeatedly challenged between days 13-15 with a nebulised solution of ovalbumin (10 mg/mL, 30 min exposure, De Vilibiss Ultraneb 2000). On day 17 each animal received via intra-tracheal administration of either vehicle or test compound 2 hr prior to the final OVA challenge. Animals were anaesthetized 8 hr later before undergoing a tracheotomy. BAL was obtained by instilling PBS (1 mL) into the lungs, which was then withdrawn. This procedure was repeated to provide approximately 2 mL of lavage fluid. Total cell numbers in the BALF samples were measured using a haemocytometer. Cytospin smears of the BALF samples were prepared by centrifugation at 200 rpm for 5 min at RT and stained using a DiffQuik stain system (Dade Behring) for differential cell counts. Cells were counted using oil immersion microscopy. Data is expressed as differential number of cells per mL of […] (mean±S.E.M).

Sequence of PI3K γ (P48736 whole entry): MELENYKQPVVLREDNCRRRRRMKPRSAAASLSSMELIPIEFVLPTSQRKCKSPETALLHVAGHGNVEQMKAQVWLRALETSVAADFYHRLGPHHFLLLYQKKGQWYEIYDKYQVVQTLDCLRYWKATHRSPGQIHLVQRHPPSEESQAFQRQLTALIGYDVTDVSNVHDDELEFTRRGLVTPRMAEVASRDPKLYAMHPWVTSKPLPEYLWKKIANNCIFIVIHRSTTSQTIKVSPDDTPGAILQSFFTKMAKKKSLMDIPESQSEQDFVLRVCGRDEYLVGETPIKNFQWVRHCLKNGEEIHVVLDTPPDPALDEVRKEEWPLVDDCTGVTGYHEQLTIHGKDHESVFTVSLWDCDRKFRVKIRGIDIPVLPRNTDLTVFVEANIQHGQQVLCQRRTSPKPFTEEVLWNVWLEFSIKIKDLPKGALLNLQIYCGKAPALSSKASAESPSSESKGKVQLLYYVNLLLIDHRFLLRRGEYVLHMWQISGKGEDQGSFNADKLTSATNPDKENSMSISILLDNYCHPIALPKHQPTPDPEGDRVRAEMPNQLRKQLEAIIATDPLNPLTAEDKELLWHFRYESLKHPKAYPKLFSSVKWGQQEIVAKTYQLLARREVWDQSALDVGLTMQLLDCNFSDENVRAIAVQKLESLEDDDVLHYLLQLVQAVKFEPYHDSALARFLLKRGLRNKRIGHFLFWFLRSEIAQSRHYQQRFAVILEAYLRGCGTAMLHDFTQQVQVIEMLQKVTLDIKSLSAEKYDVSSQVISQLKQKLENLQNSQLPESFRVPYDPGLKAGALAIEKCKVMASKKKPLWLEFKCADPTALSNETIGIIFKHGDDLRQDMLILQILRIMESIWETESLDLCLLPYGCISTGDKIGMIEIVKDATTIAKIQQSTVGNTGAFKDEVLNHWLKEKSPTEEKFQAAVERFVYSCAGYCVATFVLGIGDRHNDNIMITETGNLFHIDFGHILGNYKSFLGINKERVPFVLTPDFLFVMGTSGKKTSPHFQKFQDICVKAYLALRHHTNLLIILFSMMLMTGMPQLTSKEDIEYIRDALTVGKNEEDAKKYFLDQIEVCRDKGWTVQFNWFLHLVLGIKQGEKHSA

COCCOCCOCC#Cc1cccc2nc(Cn3nc(-c4cc(O)cc(F)c4)c4c(N)ncnc43)n(Cc3ccccc3C(F)(F)F)c(=O)c12 [Compound (I), 2-((4-Amino-3-(3-fluoro-5-hydroxyphenyl)-1H-pyrazolo[3,4-d]pyrimidin-1-yl)methyl)-5-(3-(2-(2-methoxyethoxy)ethoxy)prop-1-yn-1-yl)-3-(2-(trifluoromethyl)benzyl)quinazolin-4(3H)-one]
EC50 (PI3K γ): 16.5 nM | % inhibition of neutrophil numbers in BALF ([1]; 0.05 mg/mL, pre-dose 2 hr): 9% | Neutrophil numbers in BALF ([1]; 0.05 mg/mL, pre-dose 2 hr): 13.2 ± 2.3 x10^5/mL | % inhibition of neutrophil numbers in BALF ([1]; 0.2 mg/mL, pre-dose 2 hr): 58% | Neutrophil numbers in BALF ([1]; 0.2 mg/mL, pre-dose 2 hr): 6.3 ± 1.6 x10^5/mL | % inhibition of neutrophil numbers in BALF ([1]; 0.2 mg/mL, pre-dose 8 hr): 33% | Neutrophil numbers in BALF ([1]; 0.2 mg/mL, pre-dose 8 hr): 10.1 ± 1.8 x10^5/mL | % inhibition of neutrophil numbers in BALF ([1]; 0.2 mg/mL, pre-dose 12 h): 10% | Neutrophil numbers in BALF ([1]; 0.2 mg/mL, pre-dose 12 h): 13.6 ± 2.7 x10^5/mL | % inhibition of neutrophil numbers in BALF ([1]; 1.0 mg/mL, pre-dose 2 hr): 73% | Neutrophil numbers in BALF ([1]; 1.0 mg/mL, pre-dose 2 hr): 4.1 ± 0.7 x10^5/mL | % inhibition, Eosinophils in BALF ([2]; 0.05 mg/mL): 20% | % inhibition, Neutrophils in BALF ([2]; 0.05 mg/mL): 18% | Cell numbers in BALF, Eosinophils ([2]; 0.05 mg/mL): 19.7 ± 3.2 x10^4/mL | Cell numbers in BALF, Neutrophils ([2]; 0.05 mg/mL): 8.0 ± 0.4 x10^4/mL | % inhibition, Eosinophils in BALF ([2]; 0.2 mg/mL): 85% | % inhibition, Neutrophils in BALF ([2]; 0.2 mg/mL): 70% | Cell numbers in BALF, Eosinophils ([2]; 0.2 mg/mL): 3.8 ± 0.9 x10^4/mL | Cell numbers in BALF, Neutrophils ([2]; 0.2 mg/mL): 2.9 ± 0.5 x10^4/mL | % inhibition, Eosinophils in BALF ([2]; 1 mg/mL): 91% | % inhibition, Neutrophils in BALF ([2]; 1 mg/mL): 80% | Cell numbers in BALF, Eosinophils ([2]; 1 mg/mL): 2.1 ± 0.4 x10^4/mL | Cell numbers in BALF, Neutrophils ([2]; 1 mg/mL): 2.0 ± 0.3 x10^4/mL
